Key:
Format in all cases: cell-based
[1] = system: Fusarium sp.; assay: Marine-derived fungi growth inhibition (OD405); conditions: 5 days, 26 °C
Method: All the biological assays were run by triplicate.
(§1) Three strains of marine-derived fungi were kindly provided by Dr. Á. Trigos (University of Veracruz, Mexico). The strains were isolated from reef organisms collected from the Veracruz Reef System and identified as Aspergillus sp., Fusarium sp. and Alternaria sp..
(§2) Fungal strains were cultured in Potato-Dextrose Agar (PDA) supplemented with filtered seawater (FSW) (50% v/v) at 26 °C for 5 days prior to experiments. […] Briefly, fungal inocula were prepared by addition of 5 ml of sterile saline solution to the cultures. Gently swabbing released conidia. […] The plates were incubated for 5 days at 26 °C. The calculation of the half-maximal inhibitory concentrations (IC50) was performed using OD405 as endpoint.

[2] = system: Aspergillus sp.; assay: Marine-derived fungi growth inhibition (OD405); conditions: growth inhibition, 5 days, 26 °C; read-out: IC50 Aspergillus sp.
Method: (§3) All the biological assays were run by triplicate. […] For the active products, serial dilutions were performed to calculate the half-maximal inhibitory concentrations (IC50) or the minimal inhibitory concentrations (MIC). Unless otherwise stated, the test concentrations were 100, 50, 25, 10, 5, 2.5, 1, 0.5 and 0.1 μM. Dose-response curves were adjusted with GraphPad Prism 5 software using a four-parameter non-linear regression model.
as §1, §2

[3] = system: Alternaria sp.; assay: Marine-derived fungi growth inhibition (OD405); conditions: growth inhibition, 5 days, 26 °C; read-out: IC50 Alternaria sp.
Method: as §3, §1, §2

[4] = system: Cylindrotheca sp.; assay: Benthic diatom growth inhibition (chlorophyll-a); conditions: growth, 5 days, chlorophyll-a; read-out: IC50 Cylindrotheca sp.
Method: as §3
(§4) Five strains of benthic diatoms, Nitszchia sp. […] The Nitzschia and Navicula strains were purchased from the Spanish Bank of Algae (Marine Biotechnology Center, University of Las Palmas de Gran Canaria). The other three strains were kindly provided by Dr. G. Courtois (University of Las Palmas de Gran Canaria). Diatoms were cultured at 19±1 °C in Erlenmeyer flaks (250 ml) containing 150 ml of Guillard’s F/2 medium, and subjected to a photoperiod of 18:6. Tests were run in 48-well plates. Inocula were prepared by adjusting diatom concentration to 2–4 × 10^6 cells ml^-1 using a Neubauer chamber. Test products were dissolved in F/2 medium (500 μl) to which diatom inocula (500 μl) were added. Thus, the final assay volume was 1 ml and the starting cell densities were ca. 1–2 x 10^6 diatoms ml^-1. Plates were incubated under the abovementioned conditions for 5 days and then chlorophyll-a (Chla) was quantified.
(§5) In order to extract Chla, the content of each well was transferred to a microcentrifuge tube and centrifuged at 10,000 rpm for 10 min. The supernatants were discarded and 200 μl of DMSO were added to the pellets. The tubes were incubated at 65 °C for 2 h in total darkness and vortexed every 30 min. Then, the content of each tube was transferred to a 96-well plate and the amount of Chla was determined spectrophotometrically. Path length correction factor for the DMSO extracts was determined.

[5] = system: Amphora sp.; assay: Benthic diatom growth inhibition (chlorophyll-a); conditions: growth, 5 days, chlorophyll-a; read-out: IC50 Amphora sp.
Method: as §3, §4, §5

[6] = system: Phaeodactylum tricornutum; assay: Benthic diatom growth inhibition (chlorophyll-a); conditions: growth, 5 days, chlorophyll-a; read-out: IC50 P. tricornutum
Method: as §3, §4, §5

[7] = system: Nitzschia sp.; assay: Benthic diatom growth inhibition (chlorophyll-a); conditions: growth, 5 days, chlorophyll-a; read-out: IC50 Nitzschia sp.
Method: as §3, §4, §5

[8] = system: Navicula cf. salinicola BEA 0055; assay: Benthic diatom growth inhibition (chlorophyll-a); conditions: growth, 5 days, chlorophyll-a; read-out: IC50 Navicula cf. salinicola
Method: as §3, §4, §5

[9] = system: Gayralia oxysperma spores; assay: Macroalgal spore germination inhibition; conditions: 6 days, 19±1 °C
Method: as §3
To evaluate the effect of the phosphonium salts on the germination of macroalgal spores, Gayralia oxysperma (Kützing) K.L.Vinogradova was selected as model organism. G. oxysperma (Ulotrichales, Chlorophyta) is a cosmopolitan member of the Ulvophyceae. Unlike Ulva species, which produce biflagellate male and female gametes, as well as quadriflagellate spores, G. oxysperma only produces biflagellate spores. This is an advantage as bioassays can be conducted straightforwardly without the need to distinguish between gamete-producing and zoospore-producing plants. […] Fresh fertile fragments were selected and placed in Petri dishes. Spores were then released in Von Stosch Solution (VSS) by the osmotic method. Bioassays were conducted in flat-bottom 96-well plates as described by Chambers and co-workers, with slight modifications. Each well was filled with 50 μl of the appropriate dilution of the products in VSS to which 50 μl of spore inoculum (ca. 2 x 10^5 spores ml^-1) were added. Plates were incubated at 19±1 °C for 6 days. After the incubation time, the bottom of each well was examined for the presence of germinated spores with an inverted microscope. A spore was considered as germinated when the germ tube was visible. The MIC was recorded as the lowest concentration inhibiting spore germination.

[10] = system: Cellulophaga lytica CECT 5014; assay: Marine bacteria growth inhibition (broth microdilution, OD625); conditions: growth inhibition, 24 h, 30 °C, three replicates; read-out: IC50 C. lytica
Method: as §3
(§6) Growth inhibition was assessed in Marine Broth (Conda) according to CLSI guidelines for broth microdilution susceptibility testing. The incubation time was 24 h and the incubation temperature was 30 °C.

[11] = system: Vibrio anguillarum CECT 4347; assay: as above; conditions: growth inhibition, 24 h, 30 °C, three replicates; read-out: IC50 V. anguillarum
Method: as §3, §6

[12] = system: Cobetia marina CECT 4278; assay: as above; conditions: growth inhibition, 24 h, 30 °C, three replicates; read-out: IC50 C. marina
Method: as §3, §6

[13] = system: Pseudoalteromonas atlantica CECT 579; assay: as above; conditions: growth inhibition, 24 h, 30 °C, three replicates; read-out: IC50 P. atlantica
Method: as §3, §6

[14] = system: Vibrio alginolyticus CECT 521; assay: as above; conditions: growth inhibition, 24 h, 30 °C, three replicates; read-out: IC50 V. alginolyticus
Method: as §3, §6

[15] = system: Shewanella algae CECT 5021; assay: as above; conditions: growth inhibition, 24 h, 30 °C, three replicates; read-out: IC50 S. algae
Method: as §3, §6

Substance: bis-(tris-n-butyltin)oxide [TBTO, reference compound]
- IC50 [1]: 6.7 µM
- IC50 [2]: 3 µM
- IC50 [3]: 0.6 µM
- IC50 [4]: 0.4 µM
- IC50 [5]: 5.7 µM
- IC50 [6]: 1.7 µM
- IC50 [7]: 2.8 µM
- IC50 [8]: 6.3 µM
- MIC G. oxysperma (lowest concentration inhibiting spore germination) [9]: 5 µM
- IC50 [10]: 0.5 µM
- IC50 [11]: 27.5 µM
- IC50 [12]: 34.2 µM
- IC50 [13]: 46.6 µM
- IC50 [14]: 38.6 µM
- IC50 [15]: 6.4 µM
